Data reported in patent publication US20260212886A1, “MAGNETIC RECORDING MEDIUM AND CARTRIDGE” (Sony Group Corporation, priority 2023, published 2026).

experiment: Acid dissociation constant (pKa) by potentiometric titration (JIS K 0070:1992)
From the text: The acid dissociation constant (pKa) is a parameter indicating the degree of dissociation of an acid. When the ionization constant of an acid is Ka, the acid dissociation constant is defined by pKa=−log10 Ka.

| pKa | Structure (SMILES) |
| --- | --- |
| ≤ 5 | O=C(O)c1ccc(O)cc1 [4-hydroxybenzoic acid] |
| ≤ 5 | O=C(O)CC(O)(CC(=O)O)C(=O)O [Citric acid, citric acid] |
| ≤ 5 | O=C(O)c1cccc(C(=O)O)c1 [Isophthalic acid, isophthalic acid] |

| Structure (SMILES) | pKa |
| --- | --- |
| O=P(O)(O)c1ccccc1 [Phenylphosphonic acid] | ≤ 5 |
